Test results taken from ChEMBL document CHEMBL1130516, “Synthesis and biological activity of novel penem sulfoxides and sulfones” (Bioorg Med Chem Lett, 1997).

What was measured:
Escherichia coli [1] = assay: Inhibitory zone of compound at 30 ug against Escherichia coli TEM was determined; type: functional
Staphylococcus [2] = assay: Inhibitory zone of compound at 30 ug against Staphylococcus 25768 was determined; type: functional
Enterococcus = assay: Inhibitory zone of compound at 30 ug against Enterococcus was determined; type: functional
Enterobacter cloacae = assay: Inhibitory zone of compound at 30 ug against Enterobacter cloacae was determined; type: functional
[3] = Compound was evaluated for half life of hydrolysis in phosphate buffer at pH 7.4 and 37 degree C; type: ADME
Staphylococcus aureus = assay: Inhibitory zone of compound at 30 ug against Staphylococcus aureus 1104 was determined; type: functional
Staphylococcus [4] = assay: Inhibitory zone of compound at 30 ug against Staphylococcus innsbruck was determined; type: functional
[5] = Compound was evaluated for relative hydrolysis rate; type: ADME
Beta-lactamase TEM [6] = molecular target: T1, Beta-lactamase TEM (Escherichia coli, UniProt P62593); assay: (§1) Compound was evaluated for beta-lactamase inhibition activity of Escherichia coli after 15 min of pre-incubation with the enzyme at 37 degree C; parameters: species or system Escherichia cloacae
Beta-lactamase = Beta-lactamase (Enterobacter cloacae, UniProt P05364); assay: Compound was evaluated for beta-lactamase inhibition activity of Enterobacter cloacae after 15 min of pre-incubation with the enzyme at 37 degree C
Escherichia coli [7] = assay: Inhibitory zone of compound at 30 ug against Escherichia coli 1103 was determined; type: functional
Pseudomonas aeruginosa = assay: Inhibitory zone of compound at 30 ug against Pseudomonas aeruginosa was determined; type: functional
Beta-lactamase TEM [8] = molecular target: T1, Beta-lactamase TEM; assay: as §1

T1 sequence (P62593 whole entry): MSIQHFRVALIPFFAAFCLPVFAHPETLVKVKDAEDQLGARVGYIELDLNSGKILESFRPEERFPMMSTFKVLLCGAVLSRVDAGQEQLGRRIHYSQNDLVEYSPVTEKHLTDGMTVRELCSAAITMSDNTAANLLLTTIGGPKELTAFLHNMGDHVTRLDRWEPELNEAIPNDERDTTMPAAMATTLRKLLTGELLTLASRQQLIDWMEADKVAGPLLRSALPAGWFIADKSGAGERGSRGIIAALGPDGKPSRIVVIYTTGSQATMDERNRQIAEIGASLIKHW
Beta-lactamase, sequence (P05364 whole entry): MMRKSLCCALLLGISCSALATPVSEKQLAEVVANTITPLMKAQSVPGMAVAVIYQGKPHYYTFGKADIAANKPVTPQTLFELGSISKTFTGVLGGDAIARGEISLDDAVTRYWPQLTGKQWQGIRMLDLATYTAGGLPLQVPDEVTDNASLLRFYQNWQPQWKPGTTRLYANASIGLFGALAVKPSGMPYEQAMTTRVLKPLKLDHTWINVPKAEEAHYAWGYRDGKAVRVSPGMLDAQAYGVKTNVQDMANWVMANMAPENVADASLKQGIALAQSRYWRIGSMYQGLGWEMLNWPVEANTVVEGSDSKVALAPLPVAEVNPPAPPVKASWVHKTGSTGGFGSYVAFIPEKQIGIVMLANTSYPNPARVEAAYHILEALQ

SMILES | Inhibition zone (Escherichia coli [1]) [mm] | Inhibition zone (Staphylococcus [2]) [mm] | Inhibition zone (Enterococcus) [mm] | Inhibition zone (Enterobacter cloacae) [mm] | half-life [3] [h] | Inhibition zone (Staphylococcus aureus) [mm] | Inhibition zone (Staphylococcus [4]) [mm] | Krel [5] | IC50 (Beta-lactamase TEM [6]) [µM] | IC50 (Beta-lactamase) [µM] | Inhibition zone (Escherichia coli [7]) [mm] | Inhibition zone (Pseudomonas aeruginosa) [mm] | IC50 (Beta-lactamase TEM [8]) [µM]
C[C@@H](O)[C@H]1C(=O)N2C(C(=O)[O-])=C(C(C)(C)C)S[C@H]12.[K+] | 9 | 31 | 11 | 10 | 16 | 36 | 0 | 0.6 | 50 | 0.3 | 18 | 0 | 
N[C@@H](C(=O)N[C@@H]1C(=O)N2C(C(=O)O)=C(Cl)CS[C@H]12)c1ccccc1.O [CEFACLOR] | 15 | 13 | 15 | 7 |  | 32 | 12 |  |  |  | 25 | 0 | 
C[C@@H](O)[C@H]1C(=O)N2C(C(=O)[O-])=C(C(C)(C)C)S(=O)(=O)[C@H]12.[K+] | 0 | 0 | 0 | 0 | 18 | 0 | 0 | 720 |  | 0.004 | 0 | 0 | 10
CC(C)(C)C1=C(C(=O)[O-])N2C(=O)C[C@H]2[S+]1[O-].[K+] (some centres undefined) | 0 | 8 | 0 | 0 | 5.5 | 36 | 0 | 39 |  |  | 10 | 0 | 
CC(C)(C)C1=C(C(=O)[O-])N2C(=O)C[C@H]2S1.[K+] | 0 | 0 | 0 | 0 | 9 | 40 | 0 | 1 |  |  | 11 | 0 | 
C[C@@H](O)[C@H]1C(=O)N2C(C(=O)[O-])=C(C(C)(C)C)[S+]([O-])[C@H]12.[K+] (some centres undefined) | 13 | 24 | 0 | 7 | 6.5 | 30 | 0 | 33 |  | 0.3 | 20 | 0 | 90
